According to US20080280810A1, “PEPTIDES HAVING AFFINITY FOR BODY SURFACES” (priority 2006, published 2008):

What was measured:
Set-up in all cases: species or system human
[1] = Color retention after shampoo treatment, peptide as sealant with Basic Red 2 dye; conditions: 0.25 wt % Basic Red 2, peptide 0.25 wt %, 60 min contact, after 10 shampoo treatments; dye alone 29.70
Experimental: (§1) The peptides used in this Example were prepared as described in Examples 1 and 2. The color retention was quantified using a spectrophotometric measurement technique. A peptide given as SEQ ID NO:41 or SEQ ID NO:42 (38 mg), produced via fermentation as described in Examples 1 and 2, was added to 15 g of an aqueous 0.25 wt % solution of Basic Red 2 (Abbey Color, Philadelphia, Pa.) and the solution was allowed to stir for 1 h. A natural white hair tress (1 cm wide, potted, International Hair Importers & Products Inc., Bellerose, N.Y.) was inserted into a 15 mm×125 mm test tube and 13 mL of the peptide/dye mixture was injected into the test tube. The hair tress was immersed in contact with the colorant solution for 60 min and the colorant solution was agitated using a magnetic stirrer. The tress was removed, allowed to drip dry, and then air dried for 30 min. The hair tress was then subjected to a water rinse using copious amounts of deionized water, followed by a shampoo treatment with embrocation for 30 seconds. The shampoo treatment involved the application of Pantene Pro-V Sheer Volume shampoo (Proctor & Gamble, Cincinnati, Ohio) to the hair as follows. […] The color intensity after the shampoo was measured as described in Examples 4-7.

[2] = Color retention after shampoo treatment, peptide as sealant with Acid Red 33 dye; conditions: 0.50 wt % Acid Red 33, peptide 0.25 wt %, 30 min contact, after one shampoo treatment; vs uncolored hair; larger = better color retention; dye alone 19.63
Experimental: The peptides used in this Example were prepared as described in Examples 1-3. The color retention was quantified using a spectrophotometric measurement technique.
A peptide given as SEQ ID NO:41, SEQ ID NO:42, or SEQ ID NO:43 (38 mg), produced via fermentation as described in Examples 1-3, was added to 15 g of an aqueous 0.50 wt % solution of Acid Red 33 (Abbey Color, Philadelphia, Pa.) and the solution was allowed to stir for 1 h. A natural white hair tress (1 cm wide, potted, International Hair Importers & Products Inc., Bellerose, N.Y.) was inserted into a 15 mm×125 mm test tube and 13 mL of the peptide/dye mixture was injected into the test tube. The hair tress was immersed in contact with the colorant solution for 30 min and the colorant solution was agitated using a magnetic stirrer. The tress was removed, allowed to drip dry, and then air dried for 30 min.
The hair tress was then subjected to a water rinse using copious amounts of deionized water, followed by a shampoo treatment with embrocation for 30 seconds. The shampoo treatment involved the application of Pantene Pro-V Sheer Volume shampoo (Proctor & Gamble, Cincinnati, Ohio) to the hair as follows. A quarter-sized drop of the shampoo was distributed evenly over the hair tress and then was massaged aggressively into the hair for 30 sec, after which the hair tress was rinsed with water to remove the shampoo. The hair tress was then dried at room temperature. The entire procedure described above was repeated without the addition of the hair-binding peptide to serve as a control.
The color intensity after the shampoo treatment was measured using an X-Rite® SP78™ Sphere Spectrophotometer (X-Rite, Inc., Grandville, Mich.), by placing the colored hair sample into the photosensor and calculating L*, a* and b* parameters representing the photometer response. An initial baseline L* value was measured for the uncolored hair and all measurements were the average of three individual determinations. Delta E values were calculated using equation 1 below: […]

[3] = Color retention after shampoo treatment, peptide as sealant with HC Blue 26 dye; conditions: 0.50 wt % HC Blue 26, peptide 0.25 wt %, 90 min contact, after 6 shampoo treatments; dye alone 25.75
Experimental: as §1, with “0.50” for “0.25”, “HC Blue 26 (Aldrich)” for “Basic Red 2 (Abbey Color, Philadelphia, Pa.)”, “90” for “60”

| Substance | Delta E [1] | Delta E [2] | Delta E [3] |
| --- | --- | --- | --- |
| P-EQISGSLVAAPW-KRKRK-D (PEQISGSLVAAPWKRKRKD; Peptide having affinity for hair) [HC 74] | 33.64 | 28.68 | 30.36 |
| P-TPPELLHGAPRS-KRKRK-D (PTPPELLHGAPRSKRKRKD; Peptide having affinity for hair) [HC 71] | 32.36 | 25.80 | 27.83 |
